Where a name gives a salt, the structure may show the parent alone. Read-outs that look alike come from different tables or passages of the source. Where a SMILES comes first, the peptide text is derived from it. The star is where a group is joined. Exatecan = CC[C@@]1(O)C(=O)OCc2c1cc1n(c2=O)Cc2c-1nc1cc(F)c(C)c3c1c2[C@@H](N*)CC3; Acetyl(cyclooct-2-yn-1-ylO) = O=C(COC1C#CCCCCC1)*
Columns and labels:
[1] = tested on: SK-BR-3 cells; experiment: In vitro cytotoxicity assay in SK-BR-3 cells (CellTiter-Glo 2.0); format: cell-based, human; conditions: for EC50: Homo sapiens
Description: To test the ability of anti-Her2 drug conjugates (ADCs) of the present disclosure (see Table 5) to kill human cell lines, an in vitro cytotoxicity assay was performed. In vitro cytotoxicity of the ADCs, isotype control ADCs, and reference free payloads were evaluated using the CellTiter-Glo 2.0 Assay Kit (Promega, Cat #G9243), in which the quantity of ATP present is used to determine the number of viable cells in culture.
The last well in each dilution series (untreated wells) served as blank controls containing only the media (ADCs) or media plus 0.2% DMSO (payloads) and was plotted as a continuation of the 3-fold serial dilution. Six days later, 100 μL of CellTiter Glo 2.0 was added to each well, plates were mixed for 2 minutes on an orbital shaker, and plates were incubated at room temperature for 10 minutes. Relative light units (RLUs) were measured on an Envision luminometer (PerkinElmer), and cell viability was expressed as a percentage of the untreated (100% viable) cells. IC50 values were determined using a four-parameter logistic equation over a 10-point dose response curve (GraphPad Prism). The maximum % kill was also determined for each test article as follows: 100−minimum percent viability.

[2] = tested on: HCT-15; experiment: HCT-15 data of payloads and linker-payloads (EC50, with or without verapamil); format: cell-based
[3] = Homo sapiens, linker-payload, HCT-15 cells, read-out: HCT-15 EC50
[4] = Homo sapiens, payload, HCT-15 cells, no verapamil, read-out: HCT-15 EC50
[5] = payload, HCT-15 cells plus verapamil, read-out: HCT-15 + verapamil EC50

Compound	EC50 [2, 4] [nM]	EC50 [2, 5] [nM]	further results
CC[C@@]1(O)C(=O)OCc2c1cc1n(c2=O)Cc2c-1nc1cc(F)c(C)c3c1c2[C@@H](N)CC3 [Exatecan]	–	–	EC50 ([1]; 144 h, Table 8, SK-BR-3, six days, concentrations corrected for DAR (effective payload concentration), read-out: SKBR3 EC50): 0.516 nM; EC50 ([1]; SK-BR-3 cells, read-out: EC50 value): 0.516 nM; maximum % kill ([1]; SK-BR-3 cells, 100 − minimum percent viability): ~95%
CC[C@@]1(O)C(=O)OCc2c1cc1n(c2=O)Cc2c-1nc1cc(F)c(C)c3c1c2[C@@H](NC(=O)COCNC(=O)OCc1ccc(NC(=O)[C@H](C)NC(=O)[C@@H](NC(=O)CCOCCOCCOCCOCCNC(=O)COC2C#CCCCCC2)C(C)C)cc1)CC3 (stereo partly drawn) [LP15, {4-[(2S)-2-[(2S)-2-{1-[2-(cyclooct-2-yn-1-yloxy)acetamido]-3,6,9,12-tetraoxapentadecan-15-amido}-3-methylbutanamido]propanamido]phenyl}methyl N-[({[(10S,23S)-10-ethyl-18-fluoro-10-hydroxy-19-methyl-5,9-dioxo-8-oxa-4,15-diazahexacyclo[14.7.1.0^2,^14.0^4,^13.0^6,^11.0^20,^24]tetracosa-1,6(11),12,14,16,18,20(24)-heptaen-23-yl]carbamoyl}methoxy)methyl]carbamate]	–	–	EC50 [2, 3]: 96.9 nM
CC[C@@]1(O)C(=O)OCc2c1cc1n(c2=O)Cc2c-1nc1cc(F)c(C)c3c1c2[C@@H](NS(C)(=O)=O)CC3 [P6, N-[(10S,23S)-10-ethyl-18-fluoro-10-hydroxy-19-methyl-5,9-dioxo-8-oxa-4,15-diazahexacyclo[[14.7.1.0^2,^14.0^4,^13.0^6,^11.0^20,^24]]tetracosa-1,6(11),12,14,16,18,20(24)-heptaen-23-yl]methanesulfonamide]	7.45	3.16	–
CC[C@@]1(O)C(=O)OCc2c1cc1n(c2=O)Cc2c-1nc1cc(F)c(C)c3c1c2[C@@H](NC(=O)CN)CC3 [P2, 2-Amino-N-[(10S,23S)-10-ethyl-18-fluoro-10-hydroxy-19-methyl-5,9-dioxo-8-oxa-4,15-diazahexacyclo[[14.7.1.0^2,^14.0^4,^13.0^6,^11.0^20,^24]]tetracosa-1,6(11),12,14,16,18,20(24)-heptaen-23-yl]acetamide]	61.9	14.3	–
CC[C@@]1(O)C(=O)OCc2c1cc1n(c2=O)Cc2c-1nc1cc(F)c(C)c3c1c2[C@@H](NCCS(C)(=O)=O)CC3 [P7, (10S,23S)-10-ethyl-18-fluoro-10-hydroxy-23-[(2-methanesulfonylethyl)amino]-19-methyl-8-oxa-4,15-diazahexacyclo[[14.7.1.0^2,^14.0^4,^13.0^6,^11.0^20,^24]]tetracosa-1,6(11),12,14,16,18,20(24)-heptaene-5,9-dione]	5.58	1.69	–
CC[C@@]1(O)C(=O)OCc2c1cc1n(c2=O)Cc2c-1nc1cc(F)c(C)c3c1c2[C@@H](NC(=O)[C@@H](N)CCCCNC(=O)OCc1ccc(NC(=O)[C@H](CCCNC(N)=O)NC(=O)[C@@H](NC(=O)CCOCCOCCOCCOCCNC(=O)COC2C#CCCCCC2)C(C)C)cc1)CC3 (stereo partly drawn) [LP11, {4-[(2S)-5-(carbamoylamino)-2-[(2S)-2-{1-[2-(cyclooct-2-yn-1-yloxy)acetamido]-3,6,9,12-tetraoxapentadecan-15-amido}-3-methylbutanamido]pentanamido]phenyl}methyl N-[(5S)-5-amino-5-{[(10S,23S)-10-ethyl-18-fluoro-10-hydroxy-19-methyl-5,9-dioxo-8-oxa-4,15-diazahexacyclo[14.7.1.0^2,^14.0^4,^13.0^6,^11.0^20,^24]tetracosa-1,6(11),12,14,16,18,20(24)-heptaen-23-yl]carbamoyl}pentyl]carbamate]	–	–	EC50 [2, 3]: 208 nM
CC[C@@]1(O)C(=O)OCc2c1cc1n(c2=O)Cc2c-1nc1cc(F)c(C)c3c1c2[C@@H](NC(=O)OCc1ccc(NC(=O)[C@H](CCCNC(N)=O)NC(=O)[C@@H](NC(=O)CCOCCOCCOCCOCCNC(=O)CCC(=O)N2Cc4ccccc4C#Cc4ccccc42)C(C)C)cc1)CC3 [LP2]	–	–	EC50 [2, 3]: 145 nM
CC[C@@]1(O)C(=O)OCc2c1cc1n(c2=O)Cc2c-1nc1cc(F)c(C)c3c1c2[C@@H](NC(=O)CNC(=O)OCc1ccc(NC(=O)[C@H](CCCNC(N)=O)NC(=O)[C@@H](NC(=O)CCOCCOCCOCCOCCNC(=O)COC2C#CCCCCC2)C(C)C)cc1)CC3 (stereo partly drawn) [LP5, {4-[(2S)-5-(Carbamoylamino)-2-[(2S)-2-{1-[2-(cyclooct-2-yn-1-yloxy)acetamido]-3,6,9,12-tetraoxapentadecan-15-amido}-3-methylbutanamido]pentanamido]phenyl}methyl N-({[(10S,23S)-10-ethyl-18-fluoro-10-hydroxy-19-methyl-5,9-dioxo-8-oxa-4,15-diazahexacyclo[14.7.1.0^2,^14.0^4,^13.0^6,^11.0^20,^24]tetracosa-1,6(11),12,14,16,18,20(24)-heptaen-23-yl]carbamoyl}methyl)carbamate]	–	–	EC50 [2, 3]: > 1000 nM
CC[C@@]1(O)C(=O)OCc2c1cc1n(c2=O)Cc2cc3cc(OC)ccc3nc2-1 [P15, (19S)-19-Ethyl-19-hydroxy-7-methoxy-17-oxa-3,13-diazapentacyclo[11.8.0.0^2,^11.0^4,^9.0^15,^20]henicosa-1(21),2,4,6,8,10,15(20)-heptaene-14,18-dione]	6.99	4.47	–
CC[C@@]1(O)C(=O)OCc2c1cc1n(c2=O)Cc2c-1nc1cc(F)c(C)c3c1c2[C@@H](NC(=O)[C@@H](N)CCCCN)CC3 [P4, (2S)-2,6-diamino-N-[(10S,23S)-10-ethyl-18-fluoro-10-hydroxy-19-methyl-5,9-dioxo-8-oxa-4,15-diazahexacyclo[[14.7.1.0^2,^14.0^4,^13.0^6,^11.0^20,^24]]tetracosa-1,6(11),12,14,16,18,20(24)-heptaen-23-yl]hexanamide]	447	581	–
CC[C@@]1(O)C(=O)OCc2c1cc1n(c2=O)Cc2c-1nc1ccc(OC)cc1c2Cn1cc(Cc2ccccc2)nn1 [P28, (S)-11-((4-benzyl-1H-1,2,3-triazol-1-yl)methyl)-4-ethyl-4-hydroxy-9-methoxy-1,12-dihydro-14H-pyrano[3′,4′:6,7]indolizino[1,2-b]quinoline-3,14(4H)-dione]	34.2	–	–
CCc1c2c(nc3ccc(OC)cc13)-c1cc3c(c(=O)n1C2)COC(=O)[C@]3(O)CC [P17, (19S)-10,19-Diethyl-19-hydroxy-7-methoxy-17-oxa-3,13-diazapentacyclo[11.8.0.0^2,^11.0^4,^9.0^15,^20]henicosa-1(21),2,4,6,8,10,15(20)-heptaene-14,18-dione]	1.59	1.44	–
CCc1c2c(nc3ccc(OC)cc13)-c1cc([C@@](O)(CC)C(=O)NCCN)c(COC(C)=O)c(=O)n1C2 [P18, {7-[(1 S)-1-[(2-Aminoethyl)carbamoyl]-1-hydroxypropyl]-12-ethyl-2-methoxy-9-oxo-9H,11H-indolizino[1,2-b]quinolin-8-yl}methyl acetate]	32.5	32.8	–
CC[C@@]1(O)C(=O)OCc2c1cc1n(c2=O)Cc2c-1nc1cc(F)c(C)c3c1c2[C@@H](NC(=O)CNC(=O)CNC(=O)CNC(=O)CNC(=O)COC1C#CCCCCC1)CC3 (stereo partly drawn) [LP8, 2-(2-{2-[2-(Cyclooct-2-yn-1-yloxy)acetamido]acetamido}acetamido)-N-({[(10S,23S)-10-ethyl-18-fluoro-10-hydroxy-19-methyl-5,9-dioxo-8-oxa-4,15-diazahexacyclo[14.7.1.0^2,^14.0^4,^13.0^6,^11.0^20,^24]tetracosa-1,6(11),12,14,16,18,20(24)-heptaen-23-yl]carbamoyl}methyl)acetamide] ({Acetyl(cyclooct-2-yn-1-ylO)}-GGGG-Exatecan)	–	–	EC50 [2, 3]: 837 nM
CC[C@@]1(O)C(=O)OCc2c1cc1n(c2=O)Cc2c-1nc1ccc(OC)cc1c2Cn1nnc2c1CCCCCC2OCC(=O)O (stereo partly drawn) [P27, 2-((1-(((S)-4-ethyl-4-hydroxy-9-methoxy-3,14-dioxo-3,4,12,14-tetrahydro-1H-pyrano[3′,4′:6,7]indolizino[1,2-b]quinolin-11-yl)methyl)-4,5,6,7,8,9-hexahydro-1H-cycloocta[d][1,2,3]triazol-4-yl)oxy)acetic acid]	78.8	–	–
CC[C@@]1(O)C(=O)OCc2c1cc1n(c2=O)Cc2c-1nc1ccccc1c2CCNC(C)C [P8, Belotecan HCl salt, reference compound]	–	3.09	EC50 ([2]; payload, HCT-15 cells, no verapamil, read-out: HCT-15 EC50): 20 nM
CC[C@@]1(O)C(=O)OCc2c1cc1n(c2=O)Cc2c-1nc1cc(F)c(C)c3c1c2[C@@H](N)CC3 [P1, Exatecan mesylate, reference compound]	1.22	1.13	–

From patent publication US20230287138A1, “PROTEIN-DRUG CONJUGATES COMPRISING CAMPTOTHECIN ANALOGS AND METHODS OF USE THEREOF” (Regneron Pharmaceuticals, Inc., priority 2022, published 2023)
